# Data as given in patent US20250281496A1, “METHODS OF TREATING NEUROPATHY USING FORETINIB AND COMPOSITIONS THEREOF” (INDIANA UNIVERSITY RESEARCH AND TECHNOLOGY CORPORATION, priority 2022, published 2025).
# Key:
# [1] = mouse, in vivo, ip, 20 days
# Description: A) Quantitative representation of changes in mouse body weight in dependence of the indicated IP daily doses of Foretinib (n=2 per dose). B) Changes in mouse blood plasma concentration of 5 mg/kg IP injected Foretinib during 48 hours after a single injection (n=3).
# It is expected that Foretinib will protect against the diabetes-induced loss of terminal axons and ensheathing SC. In our previous study, 30 mg/kg of foretinib was administered via daily gavage for a course of 5 weeks. Although reported as non-toxic, at this dose the drug, along with a strong neuroprotective effect, caused lethargic behavior, ruffled fur and weight loss requiring early termination of the experiment. Due to the substantial prevalence of type 2 diabetes, we will examine the effect of foretinib treatment on type 2 diabetic mice (db/db). To define the maximal tolerable dose, we treated wt mice by daily intraperitoneal (IP) injection of several various dosages of foretinib for 20 days, while assessing the mice weight and behavior. […] Next, to define the pharmacokinetic (PK) characteristics of the drug, we performed a mass spectrometry analysis of blood samples from wt mice treated with 5 mg/kg (n=3 mice per dose per time point). We observed that IP injection of 5 mg/kg of foretinib generated nearly 100 ng/ml blood concentration during first 4 hours, declining by 4 ng/ml/hour (FIG. 7B).
# [2] = system: Embryonic rat sensory neurons; assay: Myelination in cultured embryonic rat sensory neurons (MBP-positive area); type: cell-based; conditions: primary wt neuronal/SC co-cultures, 10 days since induction of myelination, n=4, p<0.0001
# Text: A) Embryonic rat sensory neurons were harvested, dissociated and cultured. Myelination was induced in presence of Foretinib (right image) or vehicle only (left image). 10 days since induction of myelination the cultures were fixed and immunosatined for myelin basic protein (MBP) (green), bIII-tubulin (red) and DAPI (blue). Scale bar: […]. B) Quantitative representation of the area proportion occupied by MBP-positive myelin segments (as in A) n=4, p<0.0001.
# [3] = Potential side effects and body weight under daily oral Foretinib in STZ-diabetic mice; type: in vivo
# Description: The primary objective of these experiments was to determine the effect of oral Foretinib on cutaneous innervation density in an experimental diabetic neuropathy. The numbers of animals needed for these experiments were determined by power analysis based on preliminary experiments assessing the cutaneous innervation density in diabetic and non-diabetic mice. A 50% increased nerve fiber density compared to the diabetic control was considered scientifically relevant, requiring a minimum of n=5 animals per group to achieve a power of 0.9 when assuming a standard deviation (SD) of 0.01 for all groups (normally distributed, two-sided). Animals were randomly allocated to experimental groups prior to induction of diabetes and the investigators were blinded during outcome assessments. Two experimental animals allocated to the Foretinib treated group were excluded from the experiment after not responding to the STZ injections. No outliers were excluded from the analysis. After five weeks, the experiment was terminated because 4 of 8 animals reached a predefined humane endpoint of greater than 15% weight loss compared to their pre-diabetic weight. The scheduled experimental endpoint was 12 weeks post-STZ injection. […]
# [4] = system: human iPSC-derived cultured MNs; assay: Thapsigargin- and Tunicamycin-induced death of human iPSC-derived motor neurons; type: cell-based; conditions: 1 μM Thapsigargin or 1 μM Tunicamycin, 0.5 uM Foretinib, 48 hrs
# Description: A) Rat sympathetic neurons grown in compartmented cultures for one week in the presence of NGF were switched into the indicated conditions for 48 h and immunostained for βIII-tubulin (white). Schematics on the left show the configurations used. In the top panels, NGF was maintained in all compartments. In the center and bottom panels, NGF was withdrawn from all compartments. At the bottom panel and 500 nM foretinib (Foret) added to one of the sides and the center compartment. Fluorescence images show βIII-tubulin-positive axons in the sides compartment. At the right, enlarged images of the axons per condition. While the NGF deprived neurons degenerated (axonal beading and degradation in the central panel), Foretinib supplemented (lower panel) axons kept growing Red arrow at the top of the image indicates the distance of the axonal extension during 48 h since NGF withdrawal. Size bar: […].B) MNs were differentiated from healthy human iPS (Line ID 1016A)^62 as described^63. 3 day old MNs were treated with either 1 μM of Thapsigargin (Thaps) or 1 μM Tunicamycin (Tuni) and/or with either 0.5 uM of Foretinib. […] C) Quantitative representation of the results as in B. Error bars represent standard error; *p<0.05; ***p<0.005; t-test. […] E) Quantitative representation of changes in mouse body weight in dependence of the indicated IP daily doses of Foretinib.
smiles,measurement,setting,value
"COc1cc2c(Oc3ccc(NC(=O)C4(C(=O)Nc5ccc(F)cc5)CC4)cc3F)ccnc2cc1OCCCN1CCOCC1 [Foretinib, N1-[3-Fluoro-4-({6-methoxy-7-[3-(morpholin-4-yl)propoxy]quinolin-4-yl}oxy)phenyl]-N′1-(4-fluorophenyl)cyclopropane-1,1-dicarboxamide]",maximal tolerable dose not affecting behavior and body weight,[1],5 mg/kg
same,axonal myelination (area proportion of MBP-positive myelin segments),[2],significantly improved axonal myelination
same,relative body weight change versus pre-diabetic weight,"[3]; 30 mg/kg oral daily, 5 weeks post-injection, group mean",< −15%
same,signs of increased distress,"[3]; 30 mg/kg orally via daily gavage, after four weeks of daily treatment","lethargic behavior, ruffled fur, and weight loss"
same,rescue of ER-stressor induced motor neuron death,[4],rescued Thapsigargin-and Tunicamycin-induced death
